Patent publication US5428031A, “Methods of treating cardiac arrhythmia” (priority 1993, dated 1995)

Test system: ICa (Ca2+ current)
Assay: voltage clamp measurement of Ca2+ current in isolated guinea pig ventricular myocytes
Format: cell-based
Conditions: 0.1 μM
Procedure: Guinea pig ventricular myocytes were isolated using a modification of the procedure described by Mitra R and Morad M., "A Uniform Enzymatic Method for Dissociation of Myocytes from Hearts and Stomachs of Nertilorates", Am. J. Physiol. 249:H1056-60 (1985). Excised hearts were perfused through the aorta (retrograde fashion) at a rate of 10 ml/min with oxygenated, warmed (37° C.) solutions described below. The heart was initially perfused for 7 minutes with a Tyrode's solution containing, in mM: 132 NaCl, 4 KCl, 1.2 MgCl2, 10 HEPES (formal name N-2-Hydroxyethylpiperazine-N-2-ethanesulfonic acid), 5 glucose, pH=7.2. The head was then perfused with the same nominally Ca^2+ -free solution containing 150 units/ml Type II collagenase (Worthington) and 0.5 units/ml Type XIV protease (Sigma) for 8 minutes. This perfusate was followed by a Tyrode's solution containing 0.2 mM CaCl2 (without enzymes) for 5 minutes. The digested ventricles were cut into small pieces and gently shaken until cells were visibly dispersed. […]
The suction microelectrode technique described by Giles, W. R. and Shibata, E. F., "Voltage clamp of bull-frog cardiac pacemaker cells: a quantitative, analysis of potassium currents". […]
To record K^+ currents, the cells were bathed in a Ca^2+ -free Tyrode's :solution containing […] nisoldipine. […] Data was analyzed as % block from control membrane currents. […]

`Cc1cccc(NC(=O)N[C@@H]2N=C(c3ccccc3)c3ccccc3N(C)C2=O)c1` [Compound 4, (R)-N-(2,3-dihydro-1-methyl-2-oxo-5-phenyl-1H-1,4-benzodiazepin-3-yl)-N'-(3-methylphenyl)urea] was tested, and the “effect on ICa” value was “Little or no effect”.
